{"source": "paper PMC12439480", "about": "“Dimeric CCK2R radiotheranostic tracers synergize with mTOR inhibition for enhanced tumor therapy” (Theranostics, 2025)", "test_system": "AR42J tumor-bearing mice", "assay": "in vivo", "parameters": "species or system BALB/c nude mice", "conditions": "mouse, 1 h", "description": "To complement the imaging studies, biodistribution experiments were performed. AR42J tumor-bearing mice were intravenously injected with 3.7 MBq of [^68Ga]Ga-DOTA-CCK2R-dimer (≈ 120 pmol) or [^68Ga]Ga-DOTA-CCK-66 (≈ 210 pmol) (dissolved in 200 μL of saline; n = 3/group). The mice were sacrificed at 30, 60, and 120 min post-injection, and the tissues of interest were excised, weighed, and analyzed for radioactivity using a γ-counter. For blocking studies, a 400-fold excess of the lead compound was co-administered, and the mice were sacrificed at 1 h post-injection.\nAll animal studies were approved by the Ethics Committee of Fudan University\nShanghai Cancer Center (No. FUSCC-IACUC- S2023- 0003). Five-week-old female\nBALB/c nude mice were purchased from Shanghai SLAC Laboratory Animal\nCompany. To establish cell-derived xenograft (CDX) models, 1 × 10⁶ AR42J cells\n(100 μL) were subcutaneously inoculated into the right shoulder of each mouse. […]", "note": "Numbered stars: 1 amine (or outer) side, 2 acyl side, 3 side chain; on linkers, the order of the positions; unused ones are H or OH. Square brackets hold non-standard residues; d marks the D form. Peptide text beside a SMILES is read from it. * marks the point of attachment. DOTA = O=C(O)CN1CCN(CC(=O)O)CCN(CC(=O)*)CCN(CC(=O)O)CC1; d(γGlu) = O=C(O)[C@@H](CCC(=O)[*:2])N[*:1]; 1Nal = N[C@@H](Cc1cccc2ccccc12)C(=O)O; NMeNle = CCCC[C@H](NC)C(=O)O; PEG4 = NCCOCCOCCOCCOCCC(=O)O", "data": [{"smiles": "CCCC[C@@H](C(=O)N[C@@H](CC(=O)O)C(=O)N[C@@H](Cc1cccc2ccccc12)C(N)=O)N(C)C(=O)[C@H](Cc1c[nH]c2ccccc12)NC(=O)CCOCCOCCOCCOCCNC(=O)CC[C@@H](NC(=O)CN1CCN(CC(=O)O)CCN(CC(=O)O)CCN(CC(=O)O)CC1)C(=O)O", "note": "[[68Ga]Ga-DOTA-CCK-66, metal not drawn, reference compound] ({DOTA-d(γGlu)-PEG4}-W[NMeNle]D[1Nal]-NH2)", "values": [{"measurement": "Bladder uptake", "value": "1.15 ± 1.21", "unit": "%ID/g"}, {"measurement": "Kidney uptake", "value": "12.68 ± 3.71", "unit": "%ID/g"}, {"measurement": "Liver uptake", "value": "0.96 ± 0.26", "unit": "%ID/g"}, {"measurement": "Stomach uptake", "value": "1.49 ± 0.64", "unit": "%ID/g"}]}]}
